Measured values: publication PMC5933747 (PLoS ONE, 2018)
pIC50: −log10 of the molar value. Like-named read-outs stand apart in the source and are kept apart here.

Key:
Type in all cases: cell-based
human NaV1.5 = human NaV1.5 (Homo sapiens, UniProt Q14524); experiment: IonWorks Quattro (IWQ) electrophysiology, human NaV1.5
human NaV1.4 = human NaV1.4 (Homo sapiens, UniProt P35499); experiment: IonWorks Quattro (IWQ) electrophysiology, human NaV1.4
human NaV1.7 = human NaV1.7 (Homo sapiens, UniProt Q15858); experiment: IonWorks Quattro (IWQ) electrophysiology, human NaV1.7
Chain of human NaV1.7 (Q15858 whole entry): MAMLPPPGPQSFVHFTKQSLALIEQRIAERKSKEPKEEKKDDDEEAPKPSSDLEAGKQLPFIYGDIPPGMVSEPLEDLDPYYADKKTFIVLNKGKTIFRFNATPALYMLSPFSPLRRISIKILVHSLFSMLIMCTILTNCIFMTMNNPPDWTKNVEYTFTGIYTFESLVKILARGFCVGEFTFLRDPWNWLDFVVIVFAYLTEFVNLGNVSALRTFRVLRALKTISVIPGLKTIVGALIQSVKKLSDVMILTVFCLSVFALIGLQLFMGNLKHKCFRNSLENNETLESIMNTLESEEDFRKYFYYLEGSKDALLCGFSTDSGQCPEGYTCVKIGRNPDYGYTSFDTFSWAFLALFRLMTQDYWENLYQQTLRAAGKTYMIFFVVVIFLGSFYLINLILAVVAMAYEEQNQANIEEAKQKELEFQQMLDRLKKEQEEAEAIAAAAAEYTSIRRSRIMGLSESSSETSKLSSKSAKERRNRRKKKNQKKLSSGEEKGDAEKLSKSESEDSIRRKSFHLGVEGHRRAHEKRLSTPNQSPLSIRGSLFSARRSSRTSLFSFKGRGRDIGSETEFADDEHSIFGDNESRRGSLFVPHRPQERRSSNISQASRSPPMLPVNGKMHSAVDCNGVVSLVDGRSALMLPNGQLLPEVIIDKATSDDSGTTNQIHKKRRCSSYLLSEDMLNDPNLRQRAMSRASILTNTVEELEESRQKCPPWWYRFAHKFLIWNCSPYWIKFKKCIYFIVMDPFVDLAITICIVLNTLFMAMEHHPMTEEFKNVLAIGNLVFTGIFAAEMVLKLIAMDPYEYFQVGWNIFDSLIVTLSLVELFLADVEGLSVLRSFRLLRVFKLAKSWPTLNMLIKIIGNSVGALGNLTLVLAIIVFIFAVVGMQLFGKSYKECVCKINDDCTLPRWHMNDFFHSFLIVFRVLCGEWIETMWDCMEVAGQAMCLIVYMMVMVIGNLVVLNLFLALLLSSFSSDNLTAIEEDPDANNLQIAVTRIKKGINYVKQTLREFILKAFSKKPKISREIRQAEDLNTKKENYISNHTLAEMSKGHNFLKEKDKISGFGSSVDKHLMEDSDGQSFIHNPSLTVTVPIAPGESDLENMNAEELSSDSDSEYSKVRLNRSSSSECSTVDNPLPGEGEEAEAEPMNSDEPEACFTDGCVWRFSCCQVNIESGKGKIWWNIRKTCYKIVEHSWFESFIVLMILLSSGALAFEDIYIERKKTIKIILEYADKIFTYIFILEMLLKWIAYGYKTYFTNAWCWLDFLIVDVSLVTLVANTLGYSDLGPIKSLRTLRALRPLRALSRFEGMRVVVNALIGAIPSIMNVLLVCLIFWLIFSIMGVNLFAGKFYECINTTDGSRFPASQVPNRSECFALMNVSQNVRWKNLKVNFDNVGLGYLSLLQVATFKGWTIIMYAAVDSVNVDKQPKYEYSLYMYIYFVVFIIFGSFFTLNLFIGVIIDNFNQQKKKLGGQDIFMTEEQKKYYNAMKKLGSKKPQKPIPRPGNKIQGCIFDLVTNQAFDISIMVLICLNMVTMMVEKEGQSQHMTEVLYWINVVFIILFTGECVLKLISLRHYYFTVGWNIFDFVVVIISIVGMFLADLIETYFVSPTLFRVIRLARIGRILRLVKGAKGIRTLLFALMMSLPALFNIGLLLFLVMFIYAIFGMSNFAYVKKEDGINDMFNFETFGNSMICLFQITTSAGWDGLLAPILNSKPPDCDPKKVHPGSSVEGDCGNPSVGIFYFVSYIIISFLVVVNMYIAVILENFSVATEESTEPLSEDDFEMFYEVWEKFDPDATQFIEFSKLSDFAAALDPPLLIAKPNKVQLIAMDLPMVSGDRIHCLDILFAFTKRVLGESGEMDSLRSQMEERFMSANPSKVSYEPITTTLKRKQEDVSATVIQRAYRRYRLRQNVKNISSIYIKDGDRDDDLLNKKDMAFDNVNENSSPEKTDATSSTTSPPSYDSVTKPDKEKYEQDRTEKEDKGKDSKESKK

[1] = read-out: Glu mutant IWQ IC50 NaV1.5
[2] = read-out: Glu mutant IWQ IC50 NaV1.4
[3] = read-out: Glu mutant IWQ IC50 NaV1.7

Chain of human NaV1.4 (P35499 whole entry): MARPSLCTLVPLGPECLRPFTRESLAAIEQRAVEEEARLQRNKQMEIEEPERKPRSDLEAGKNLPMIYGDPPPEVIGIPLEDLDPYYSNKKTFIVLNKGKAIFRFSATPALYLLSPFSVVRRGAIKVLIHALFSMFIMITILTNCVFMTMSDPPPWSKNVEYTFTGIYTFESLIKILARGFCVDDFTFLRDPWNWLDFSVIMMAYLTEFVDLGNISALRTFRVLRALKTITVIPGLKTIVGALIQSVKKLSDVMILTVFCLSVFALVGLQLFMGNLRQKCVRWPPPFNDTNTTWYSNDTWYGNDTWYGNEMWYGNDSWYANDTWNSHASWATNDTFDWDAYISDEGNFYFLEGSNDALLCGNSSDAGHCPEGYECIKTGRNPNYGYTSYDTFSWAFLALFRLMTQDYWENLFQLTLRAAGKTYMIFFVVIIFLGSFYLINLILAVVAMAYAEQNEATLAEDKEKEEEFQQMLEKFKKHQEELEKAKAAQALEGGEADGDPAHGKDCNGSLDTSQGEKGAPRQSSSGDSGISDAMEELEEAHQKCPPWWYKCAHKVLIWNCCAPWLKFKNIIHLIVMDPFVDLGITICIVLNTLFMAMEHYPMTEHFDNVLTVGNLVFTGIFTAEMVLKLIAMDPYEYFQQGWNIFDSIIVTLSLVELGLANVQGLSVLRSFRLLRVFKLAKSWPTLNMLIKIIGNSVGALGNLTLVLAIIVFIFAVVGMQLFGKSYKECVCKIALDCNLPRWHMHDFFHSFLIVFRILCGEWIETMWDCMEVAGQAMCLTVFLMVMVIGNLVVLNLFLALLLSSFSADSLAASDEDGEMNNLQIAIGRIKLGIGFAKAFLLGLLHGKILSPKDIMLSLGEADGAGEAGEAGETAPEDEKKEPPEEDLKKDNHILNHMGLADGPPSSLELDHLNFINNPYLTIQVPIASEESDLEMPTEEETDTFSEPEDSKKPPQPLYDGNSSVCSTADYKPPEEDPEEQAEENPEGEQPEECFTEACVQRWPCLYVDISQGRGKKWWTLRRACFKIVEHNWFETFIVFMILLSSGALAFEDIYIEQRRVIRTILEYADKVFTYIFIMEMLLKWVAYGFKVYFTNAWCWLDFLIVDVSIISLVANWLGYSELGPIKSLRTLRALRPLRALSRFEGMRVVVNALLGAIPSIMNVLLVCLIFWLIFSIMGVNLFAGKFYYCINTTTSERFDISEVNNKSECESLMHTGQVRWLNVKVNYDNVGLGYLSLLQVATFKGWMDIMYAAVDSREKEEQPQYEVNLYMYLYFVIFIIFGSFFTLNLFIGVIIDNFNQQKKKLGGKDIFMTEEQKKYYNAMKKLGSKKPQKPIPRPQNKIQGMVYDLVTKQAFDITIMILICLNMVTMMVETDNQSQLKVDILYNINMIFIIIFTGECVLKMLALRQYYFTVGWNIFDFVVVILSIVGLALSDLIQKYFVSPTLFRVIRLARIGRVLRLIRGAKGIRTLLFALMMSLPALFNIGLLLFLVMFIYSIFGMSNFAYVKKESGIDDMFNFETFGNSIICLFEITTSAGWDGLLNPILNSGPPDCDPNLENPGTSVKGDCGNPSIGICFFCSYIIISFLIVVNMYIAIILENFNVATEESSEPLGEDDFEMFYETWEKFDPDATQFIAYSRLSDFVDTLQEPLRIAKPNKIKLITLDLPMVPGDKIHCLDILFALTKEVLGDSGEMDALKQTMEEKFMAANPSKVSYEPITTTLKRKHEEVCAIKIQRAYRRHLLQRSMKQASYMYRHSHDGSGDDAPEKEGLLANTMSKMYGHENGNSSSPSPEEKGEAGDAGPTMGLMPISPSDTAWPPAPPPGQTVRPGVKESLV

Structure (SMILES) | pIC50 (human NaV1.5; [1]) | pIC50 (human NaV1.4; [2]) | pIC50 (human NaV1.7; [3]) | pIC50 (human NaV1.5; read-out: Ala mutant IWQ IC50 NaV1.5) | pIC50 (human NaV1.4; read-out: Ala mutant IWQ IC50 NaV1.4) | pIC50 (human NaV1.7; read-out: Ala mutant IWQ IC50 NaV1.7) | pIC50 (human NaV1.5; human, read-out: Glu mutant IWQ IC50 NaV1.5)
CC[C@H](C)[C@H](NC(=O)[C@@H](NC(=O)[C@H](CCCCN)NC(=O)[C@H](CCCNC(=N)N)NC(=O)[C@@H]1CSSC[C@@H]2NC(=O)[C@H](C)NC(=O)[C@H](CCCNC(=N)N)NC(=O)[C@H](CCC(=O)O)NC(=O)[C@H](CO)NC(=O)[C@H](CC(=O)O)NC(=O)[C@@H]3CSSC[C@H](NC(=O)[C@H](CCCNC(=N)N)NC(=O)[C@H](CC(C)C)NC(=O)CNC(=O)[C@H](CCC(=O)O)NC(=O)[C@H](CSSC[C@H](NC(=O)[C@@H](N)Cc4ccc(O)cc4)C(=O)N[C@@H](CCC(N)=O)C(=O)N[C@@H](CCCCN)C(=O)N[C@@H](Cc4c[nH]c5ccccc45)C(=O)N[C@@H](CCSC)C(=O)N[C@@H](Cc4c[nH]c5ccccc45)C(=O)N[C@@H]([C@@H](C)O)C(=O)N3)NC2=O)C(=O)N[C@@H](CCCCN)C(=O)N[C@@H](CC(C)C)C(=O)N[C@@H](Cc2c[nH]c3ccccc23)C(=O)N1)[C@@H](C)CC)C(N)=O [K12 Glu mutant] | < 5.00 | < 5.00 | 6.12 | – | – | – | –
CC[C@H](C)[C@H](NC(=O)[C@@H](NC(=O)[C@H](CCCCN)NC(=O)[C@H](C)NC(=O)[C@@H]1CSSC[C@@H]2NC(=O)[C@H](C)NC(=O)[C@H](CCCNC(=N)N)NC(=O)[C@H](CCCCN)NC(=O)[C@H](CO)NC(=O)[C@H](CC(=O)O)NC(=O)[C@@H]3CSSC[C@H](NC(=O)[C@H](CCCNC(=N)N)NC(=O)[C@H](CC(C)C)NC(=O)CNC(=O)[C@H](CCC(=O)O)NC(=O)[C@H](CSSC[C@H](NC(=O)[C@@H](N)Cc4ccc(O)cc4)C(=O)N[C@@H](CCC(N)=O)C(=O)N[C@@H](CCCCN)C(=O)N[C@@H](Cc4c[nH]c5ccccc45)C(=O)N[C@@H](CCSC)C(=O)N[C@@H](Cc4c[nH]c5ccccc45)C(=O)N[C@@H]([C@@H](C)O)C(=O)N3)NC2=O)C(=O)N[C@@H](CCCCN)C(=O)N[C@@H](CC(C)C)C(=O)N[C@@H](Cc2c[nH]c3ccccc23)C(=O)N1)[C@@H](C)CC)C(N)=O [R26 Ala mutant] | – | – | – | < 5.00 | < 5.00 | 5.62 | –
CC[C@H](C)[C@H](NC(=O)[C@@H](NC(=O)[C@H](CCCCN)NC(=O)[C@H](CCCNC(=N)N)NC(=O)[C@@H]1CSSC[C@@H]2NC(=O)[C@H](C)NC(=O)[C@H](CCCNC(=N)N)NC(=O)[C@H](CCCCN)NC(=O)[C@H](CO)NC(=O)[C@H](CC(=O)O)NC(=O)[C@@H]3CSSC[C@H](NC(=O)[C@H](CCC(=O)O)NC(=O)[C@H](CC(C)C)NC(=O)CNC(=O)[C@H](CCC(=O)O)NC(=O)[C@H](CSSC[C@H](NC(=O)[C@@H](N)Cc4ccc(O)cc4)C(=O)N[C@@H](CCC(N)=O)C(=O)N[C@@H](CCCCN)C(=O)N[C@@H](Cc4c[nH]c5ccccc45)C(=O)N[C@@H](CCSC)C(=O)N[C@@H](Cc4c[nH]c5ccccc45)C(=O)N[C@@H]([C@@H](C)O)C(=O)N3)NC2=O)C(=O)N[C@@H](CCCCN)C(=O)N[C@@H](CC(C)C)C(=O)N[C@@H](Cc2c[nH]c3ccccc23)C(=O)N1)[C@@H](C)CC)C(N)=O [R20 Glu mutant] | – | 5.74 | 6.66 | – | – | – | < 5.30
CC[C@H](C)[C@H](NC(=O)[C@@H](NC(=O)[C@H](CCCCN)NC(=O)[C@H](CCCNC(=N)N)NC(=O)[C@@H]1CSSC[C@@H]2NC(=O)[C@H](C)NC(=O)[C@H](CCCNC(=N)N)NC(=O)[C@H](CCCCN)NC(=O)[C@H](CO)NC(=O)[C@H](CC(=O)O)NC(=O)[C@@H]3CSSC[C@H](NC(=O)[C@H](CCCNC(=N)N)NC(=O)[C@H](CC(C)C)NC(=O)CNC(=O)[C@H](CCC(=O)O)NC(=O)[C@H](CSSC[C@H](NC(=O)[C@@H](N)Cc4ccc(O)cc4)C(=O)N[C@@H](CCC(=O)O)C(=O)N[C@@H](CCCCN)C(=O)N[C@@H](Cc4c[nH]c5ccccc45)C(=O)N[C@@H](CCSC)C(=O)N[C@@H](Cc4c[nH]c5ccccc45)C(=O)N[C@@H]([C@@H](C)O)C(=O)N3)NC2=O)C(=O)N[C@@H](CCCCN)C(=O)N[C@@H](CC(C)C)C(=O)N[C@@H](Cc2c[nH]c3ccccc23)C(=O)N1)[C@@H](C)CC)C(N)=O [Q3 Glu mutant] | < 5.00 | 5.74 | 6.48 | – | – | – | –
